Measured values: PMC8976278, “Hesperidin identified from Citrus extracts potently inhibits HCV genotype 3a NS3 protease” (BMC Complementary Medicine and Therapies, 2022)
Values after ≈ are worked out from the molar mass of the structure shown. Where two headings read alike, the source gives them in different places.

Tests used:
[1] = biological target: NS3-NS4A protease of HCV genotype-3a (Hepatitis C virus genotype 3a, UniProt Q81258); experiment: FRET assay of NS3-NS4A protease activity with depsipeptide substrate; type: biochemical; set-up: Activity, Slope trial 1st / Activity, Slope trial 2nd / Activity, Slope trial 3rd: unit not given here
NS3-NS4A protease of HCV genotype-3a, sequence (Q81258 1033-1213, other chains not shown): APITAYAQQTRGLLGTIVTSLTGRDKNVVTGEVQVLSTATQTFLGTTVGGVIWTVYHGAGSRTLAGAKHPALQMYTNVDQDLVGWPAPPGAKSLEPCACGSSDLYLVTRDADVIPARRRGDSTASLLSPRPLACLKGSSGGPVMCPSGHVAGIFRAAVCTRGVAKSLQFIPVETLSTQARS
Procedure: For measuring the protease activity, a FRET assay was performed using a depsipeptide substrate, Ac-Asp-Glu-Asp-(EDANS)-Glu-Glu-Abu-ψ-[COO]-Ala-Ser-Lys(DABCYL)-NH2 (AnaSpec,US). The fluorescence signal generated upon cleavage of the depsipeptide substrate by the NS3 protease domain was continuously recorded using excitation and emission wavelengths of 355 nm and 510 nm, respectively, and a fluorescence microplate reader (TECAN, US). In the case of the full-length NS3 protease, the reaction buffer (50 mM HEPES, pH 7.5, 0.4% Triton X-100, 10 mM DTT (Thermo Fisher Scientific), 3% DMSO (Thermo Fisher Scientific), and 40% glycerol) was pre-incubated (at 30 °C for 10 min) with 25 µM of a synthetic peptide, […] (purchased from LifeTein LLC, US), representing the core of the NS4A cofactor required for the catalytic activity. For the FRET assay, 1 nM of the full-length NS3 protease was used. In the case of NS3-NS4A, the protein (0.5 nM) was incubated in the reaction buffer at 30 °C for 10 min (without the synthetic peptide). The reaction was initiated by the addition of the substrate (10 µL) in a two-fold serial dilution up to a concentration of 2 µM. Reaction wells without the substrate were used as negative controls. For correction of the inner filter effect, a previously described procedure was followed. Kinetic parameters (such as kcat, Km, and kcat/Km) were calculated using the Michaelis–Menten equation. Data were fitted to the equation by non-linear regression using the GraphPad Prism® software (version 7.04, GraphPad Prism®, Inc., USA).
For validation of the FRET assay, commercially available inhibitors (asuanaprevir, ciluprevir, danoprevir, and telaprevir (purchased from AdooQ® Bioscience, US) were used to inhibit the activity of the target enzyme (NS3-NS4A protease of HCV genotype-3a), as described previously. Briefly, 1 µM of the depsipeptide substrate was added to the protein, pre-incubated with a given inhibitor, and fluorescence measurements were recorded for 20, 30, or 60 min using 355 nm and 510 nm as excitation and emission wavelengths, respectively. The IC50 value, representing the half-maximal inhibitory concentration, of each commercial inhibitor was calculated using the GraphPad Prism® software (version 7.04, GraphPad Prism®, Inc., USA). The experiment was performed in triplicates, and the average value obtained was considered as the IC50 value.
Reaction mixtures (300 µL) were prepared in the assay buffer (50 mM HEPES, pH 7.5, 0.4% Triton X-100, 10 mM DTT, and 40% glycerol). For initial screening, 3.33 mg of the plant extract was dissolved in 1 mL DMSO, and was transferred to the reaction buffer such that the final concentration of DMSO was 3%. The reaction was initiated by adding 0.5 nM NS3-NS4A protease, and the released RET S1 FRET substrate was monitored using a fluorescence microplate reader (TECAN). Reaction mixtures (also containing 3% DMSO) without any plant extract were used for recording blank measurements. The background fluorescence contributed by the plant extract was also recorded. For calculation of the calibration curve, spiking with known amounts (0.25 µM, 0.5 µM, 1 µM, and 2 µM) of the free FRET substrate (RET S1) was made while keeping the reaction mixture at the same volume, containing all the constituents (the plant extract, the assay buffer as well as the enzyme). Slope of the curve was correlated with that obtained from free FRET substrate concentrations without any plant extract as well as the substrate. Initial reaction rates were calculated, and the percentage (%) enzyme inhibition was calculated using the equation: 100 x [a-b/a] where “a” refers to the fluorescence value generated by the reaction mixture only (without the plant extract) and “b” is the solution fluorescence in the presence of the plant extract. […]

HCV NS3 protease = tested on: HCV NS3 protease; set-up: method as in earlier work; details: ref [49], [50]; Table S3 ref [1], [2]; cited from earlier work
[2] = biological target: NS3 protease domain of HCV genotype 3a fused to the cognate NS4A cofactor (NS3-NS4A) (hepatitis C virus genotype 3a)
[3] = FRET assay validation, 1 µM depsipeptide substrate, triplicates, read-out: IC50 value (commercial inhibitors) (converted)

Row | Compound | IC50 [1, 3] | IC50 value [reported in the literature] (HCV NS3 protease) | Activity, Slope trial 1st ([1]; inhibitor conc. 1.3717 nM) | Activity, Slope trial 2nd ([1]; inhibitor conc. 1.3717 nM) | Activity, Slope trial 3rd ([1]; inhibitor conc. 1.3717 nM) | Average Slope ([1]; inhibitor conc. 1.3717 nM) | Activity, Slope trial 1st ([1]; inhibitor conc. 4.1152 nM) | Activity, Slope trial 2nd ([1]; inhibitor conc. 4.1152 nM) | Activity, Slope trial 3rd ([1]; inhibitor conc. 4.1152 nM) | Average Slope ([1]; inhibitor conc. 4.1152 nM) | Activity, Slope trial 1st ([1]; inhibitor conc. 12.3456 nM) | Activity, Slope trial 2nd ([1]; inhibitor conc. 12.3456 nM) | Activity, Slope trial 3rd ([1]; inhibitor conc. 12.3456 nM) | Average Slope ([1]; inhibitor conc. 12.3456 nM) | Activity, Slope trial 1st ([1]; inhibitor conc. 37.037 nM) | Activity, Slope trial 2nd ([1]; inhibitor conc. 37.037 nM) | Activity, Slope trial 3rd ([1]; inhibitor conc. 37.037 nM) | Average Slope ([1]; inhibitor conc. 37.037 nM) | Activity, Slope trial 1st ([1]; inhibitor conc. 111.1111 nM) | Activity, Slope trial 2nd ([1]; inhibitor conc. 111.1111 nM) | also measured
1 | C=C[C@@H]1C[C@]1(NC(=O)[C@@H]1C[C@@H](Oc2ncc(OC)c3ccc(Cl)cc23)CN1C(=O)[C@@H](NC(=O)OC(C)(C)C)C(C)(C)C)C(=O)NS(=O)(=O)C1CC1 [Asunaprevir] | 68.3 nM |  |  |  |  |  |  |  |  |  |  |  |  |  |  |  |  |  |  |  | 
2 | COc1ccc2c(O[C@@H]3C[C@H]4C(=O)N[C@]5(C(=O)O)C[C@H]5/C=C\CCCCC[C@H](NC(=O)OC5CCCC5)C(=O)N4C3)cc(-c3csc(NC(C)C)n3)nc2c1 [Ciluprevir] | 53.2 nM |  |  |  |  |  |  |  |  |  |  |  |  |  |  |  |  |  |  |  | 
3 | CC(C)(C)OC(=O)N[C@H]1CCCCC/C=C\[C@@H]2C[C@@]2(C(=O)NS(=O)(=O)C2CC2)NC(=O)[C@@H]2C[C@@H](OC(=O)N3Cc4cccc(F)c4C3)CN2C1=O [Danoprevir] | 25.1 nM | 0.0146 µg/mL (≈ 0.0199 µM) | 1.677 | 2.153 | 9.123 | 4.31 | 1.449 | 1.834 | 9.072 | 4.11 | 0.991 | 0.979 | 5.934 | 2.63 | 0.450 | 0.460 | 2.283 | 1.06 | 0.196 | 0.174 | Activity, Slope trial 3rd ([1]; inhibitor conc. 111.1111 nM): 0.757; Average Slope ([1]; inhibitor conc. 111.1111 nM): 0.37; Activity, Slope trial 1st ([1]; inhibitor conc. 333.3333 nM): 0; Activity, Slope trial 2nd ([1]; inhibitor conc. 333.3333 nM): 0.039; Activity, Slope trial 3rd ([1]; inhibitor conc. 333.3333 nM): 0.003151; Average Slope ([1]; inhibitor conc. 333.3333 nM): 0.01; Activity, Slope trial 1st ([1]; inhibitor conc. 1000 nM): 0; Activity, Slope trial 2nd ([1]; inhibitor conc. 1000 nM): 0; Activity, Slope trial 3rd ([1]; inhibitor conc. 1000 nM): 0; Average Slope ([1]; inhibitor conc. 1000 nM): 0
4 | O=c1oc2c(O)c(O)cc3c(=O)oc4c(O)c(O)cc1c4c23 [Ellagic acid] |  |  |  |  |  |  |  |  |  |  |  |  |  |  |  |  |  |  |  |  | IC50 ([1]; commercially obtained pure compound, hesperidin 1230 to 1.67 µg/mL, read-out: IC50 value (pure natural compound) (converted)): 98000 nM
5 | CCC[C@H](NC(=O)[C@@H]1[C@H]2CCC[C@H]2CN1C(=O)[C@@H](NC(=O)[C@@H](NC(=O)c1cnccn1)C1CCCCC1)C(C)(C)C)C(=O)C(=O)NC1CC1 [Telaprevir] | 69.9 nM | 0.0387 µg/mL (≈ 0.0569 µM) | 4.176 | 2.087 | 2.395 | 2.88 | 4.77 | 3.604 | 1.309 | 3.22 | 3.041 | 1.613 | 2.131 | 2.26 | 3.796 | 1.828 | 1.004 | 2.20 | 1.774 | 1.116 | Activity, Slope trial 3rd ([1]; inhibitor conc. 111.1111 nM): 0.627; Average Slope ([1]; inhibitor conc. 111.1111 nM): 1.17; Activity, Slope trial 1st ([1]; inhibitor conc. 333.3333 nM): 0.5776; Activity, Slope trial 2nd ([1]; inhibitor conc. 333.3333 nM): 0.3406; Activity, Slope trial 3rd ([1]; inhibitor conc. 333.3333 nM): 0.163; Average Slope ([1]; inhibitor conc. 333.3333 nM): 0.36; Activity, Slope trial 1st ([1]; inhibitor conc. 1000 nM): 1.246; Activity, Slope trial 2nd ([1]; inhibitor conc. 1000 nM): 0.081; Activity, Slope trial 3rd ([1]; inhibitor conc. 1000 nM): 0; Average Slope ([1]; inhibitor conc. 1000 nM): 0.44
6 | depsipeptide substrate Ac-Asp-Glu-Asp-(EDANS)-Glu-Glu-Abu-ψ-[COO]-Ala-Ser-Lys(DABCYL)-NH2 |  |  |  |  |  |  |  |  |  |  |  |  |  |  |  |  |  |  |  |  | Km of cleavage of the depsipeptide substrate by NS3-NS4A (0.5 nM) in the FRET protease assay, Michaelis-Menten fit [2]: 8.79 µM
